In one assay the target is T1, wild-type VLCAD (Mus musculus, UniProt P50544).
T1 construct: 3xFLAG (C); host or cells: Hepa 1 to 6 cells
T1 sequence (P50544 42-656): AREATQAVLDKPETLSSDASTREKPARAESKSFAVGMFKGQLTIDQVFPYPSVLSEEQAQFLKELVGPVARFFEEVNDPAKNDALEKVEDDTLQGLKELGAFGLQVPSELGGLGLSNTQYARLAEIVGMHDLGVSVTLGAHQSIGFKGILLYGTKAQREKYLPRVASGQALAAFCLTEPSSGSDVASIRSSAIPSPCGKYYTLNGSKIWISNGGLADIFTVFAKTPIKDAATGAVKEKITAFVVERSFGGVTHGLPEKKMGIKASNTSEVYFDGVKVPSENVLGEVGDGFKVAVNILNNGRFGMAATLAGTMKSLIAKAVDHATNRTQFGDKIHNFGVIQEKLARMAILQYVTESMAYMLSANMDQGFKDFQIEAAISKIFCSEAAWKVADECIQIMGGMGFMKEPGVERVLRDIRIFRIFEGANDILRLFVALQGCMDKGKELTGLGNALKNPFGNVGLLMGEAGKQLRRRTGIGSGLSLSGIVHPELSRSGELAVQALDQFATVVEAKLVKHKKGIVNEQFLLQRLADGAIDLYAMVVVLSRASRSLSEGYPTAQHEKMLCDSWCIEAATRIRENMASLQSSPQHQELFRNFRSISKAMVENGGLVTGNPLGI
Description: Hepa 1 to 6 cells expressing FLAG-tagged wild-type VLCAD exposed to GSNO. The class given is cell-based. The method, then: Liver homogenate (final concentration of 0.03 μg/μl) or cell lysate (final concentration of 0.09 μg/μl) in 100 mM potassium phosphate buffer (pH 7.2) containing 0.2% Triton X-100 and 0.1 mM EDTA was mixed with […] ferricenium ion, and the reaction was initiated by the addition of palmitoyl-CoA (the final volume of the assay was 130 μl). […] At least nine concentrations of palmitoyl-CoA, ranging from 0.015 to 2 mM, were used for the experimental determination of the apparent Vmax and KM of VLCAD for each animal. […] A unit of enzyme activity is defined as the amount of enzyme that causes the reduction of […] of ferricenium per minute at room temperature (ε=4.3 mM^−1 cm^−1 at 300 nm) (Izai et al. (1992) J. Biol. Chem., 267:1027-1033). […] The measurement of specific activity of VLCAD in liver homogenates (FIG. 2H) and cell lysates (FIG. 4) was performed in the presence of 0.25 and 0.125 mM palmitoyl-CoA, respectively.
Hepa 1 to 6 cells were grown in Dulbecco's modified Eagle's medium (DMEM) containing 10% fetal bovine serum, 2 mM glutamine, penicillin (100 U/ml), and streptomycin ([…]) at 37° C. in air with 5% CO2. Cells were plated at a density of 5×10^4 cells/cm^2 and cultured under normal conditions for 24 hours. Cells were transfected with FLAG®-tagged wild-type VLCAD or FLAG®-tagged C238A VLCAD with Lipofectamine® 2000 reagent (Life Technologies) according to the protocol provided by the manufacturer. Forty-eight hours after transfection, the growth medium was replaced with serum-free DMEM, and […] freshly prepared GSNO was added for 30 minutes, after which the cells were extensively washed with PBS. Cell lysates were obtained immediately or 60, 120, and 240 minutes after the removal of GSNO. The samples were protected from UV light exposure. Lysates were assayed for protein concentration, and equal amounts of protein per sample were used for organic mercury-assisted capture.

In a further assay the target is T2, VLCAD (Mus musculus, UniProt P50544).
T2 sequence (P50544 42-656): T1 sequence (P50544 42-656)

The test system of assay [1] is β-oxidation of fatty acids. The assay can be described thus: Measurement of β-oxidation: 3H-labeled palmitoyl-CoA oxidation in liver homogenates of treated ob/ob mice. In kind it is in vivo, mouse. As to conditions: GSNO-injected ob/ob mice (i.p.). The method, then:
(1957) J. Biol. Chem., 226:497-509). The aqueous phase was collected, and proteins were precipitated by the addition of 10% TCA followed by centrifugation at 8000 g for 10 minutes at room temperature. Remaining radioactive palmitoyl-CoA was eliminated by strong anion exchange chromatography with AG 1-X8 formate resin (Life Science). The effluent containing the ^3H2O was collected and used for scintillation counting. Each experiment was coupled with a background measurement, a sample containing no protein. The background count number was subtracted from each measurement corresponding to analysis samples. Leptin-deficient mice develop liver steatosis spontaneously under normal chow diet starting at 4 to 5 weeks of life that is characterized by a diminished rate of palmitate oxidation and accumulation of fat droplets in the form of triglycerides within the hepatocytes (Brix et al. (2002) Mol. Genet. Metab., 75:219-226; de Oliveira et al. (2008) J. Am. Coll. Nutr., 27:299-305). […] This significant reduction in the rate of palmitoyl-CoA oxidation indicated a deficiency in mitochondrial β-oxidation of fatty acids. […]

The mark [2] stands for this setting: 60, 120, 240 minutes after removal of GSNO and washing.

From patent US10434079B2, “Compositions and methods for the treatment of fatty acid metabolism disorders” (The Children's Hospital of Philadelphia, priority 2013, dated 2019) come the findings set out here.

In the case of `N[C@@H](CCC(=O)N[C@@H](CSN=O)C(=O)NCC(=O)O)C(=O)O` [GSNO, S-nitrosoglutathione], on wild-type VLCAD (setting [2]), the “abundance of S-nitrosylated VLCAD after removal of GSNO” value is “declined over time” and the “enzymatic-specific activity after removal of GSNO” value is given as “declined over time”. For the same compound, the VLCAD-specific activity entry at wild-type VLCAD (GSNO treatment, 0.125 mM palmitoyl-CoA) was “significantly higher”. Besides, the “VLCAD specific activity of untreated eNOS-/- relative to eNOS-/- liver tissue treated with GSNO” value at VLCAD (5 μM GSNO 30 minutes prior to the assay, 0.25 mM palmitoyl-CoA) is “significantly lower”. In addition, the “KM for VLCAD enzymatic activity, treated vs untreated homogenate” value on VLCAD (eNOS-/- liver homogenates treated ex vivo with GSNO) was “increased five-fold”. Besides, the “S-nitrosylation of VLCAD at Cys238 ex vivo” value at VLCAD (eNOS-/- liver homogenates treated with GSNO) is recorded as “readily modified”. Besides, the “palmitoyl-CoA oxidation rate compared with PBS-injected ob/ob mice” value in assay [1] was “significantly increased rate”.
